Assays:
CWR22R = experiment: Antiproliferative activity against AR-v7 positive human 22Rv1 cells measured after 3 days by celltiter-glo luminescence assay; type: functional, cell-based
PC-3 = experiment: Antiproliferative activity against human PC-3 cells measured after 3 days by celltiter-glo luminescence assay; type: functional, cell-based; details: PC-3, 72 h
[1] = Antiproliferative activity against Ar-luc mouse Adipose stromal cell measured after 3 days by celltiter-glo luminescence assay; type: toxicity, cell-based; details: Ar-luc mouse adipose stromal cells
[2] = Kinetic solubility of the compound in phosphate buffer at pH 6.5 after 30 mins by nephelometry; type: physicochemical; details: read-out: Kinetic_solubility
[3] = Kinetic solubility of the compound in 0.01 M HCl at pH 2 after 30 mins by nephelometry; type: physicochemical; details: read-out: Kinetic_solubility
[4] = Metabolic stability in mouse liver microsomes assessed as half life incubated for 60 mins in presence of NADPH-regenerating system; type: ADME, Microsome; details: microsomes, 1 h
[5] = Partition coefficient, logD of the compound at pH 7.4 by HPLC analysis; type: physicochemical; details: octanol/water
[6] = Metabolic stability in mouse liver microsomes assessed as intrinsic clearance incubated for 60 mins in presence of NADPH-regenerating system; type: ADME, Microsome; details: microsomes, 1 h
Papain = target: T1, Papain (Carica papaya, UniProt P00784); experiment: Inhibition of papaya papain protease activity assessed as covalent binding mode of action at 10 uM incubated for 30 mins by absorbance based analysis; details: 0.5 h
T1 sequence (P00784 whole entry): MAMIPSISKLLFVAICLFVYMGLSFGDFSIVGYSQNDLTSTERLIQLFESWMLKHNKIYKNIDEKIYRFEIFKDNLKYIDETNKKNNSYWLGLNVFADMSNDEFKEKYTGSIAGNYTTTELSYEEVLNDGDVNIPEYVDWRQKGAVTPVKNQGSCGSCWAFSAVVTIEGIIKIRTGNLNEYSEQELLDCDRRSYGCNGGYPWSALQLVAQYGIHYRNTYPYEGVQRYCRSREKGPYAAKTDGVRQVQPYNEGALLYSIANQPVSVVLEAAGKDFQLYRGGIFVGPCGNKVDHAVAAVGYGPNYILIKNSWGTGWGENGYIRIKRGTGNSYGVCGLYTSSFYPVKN

[7] = Homo sapiens, 22Rv1, 72 h, read-out: IC50

SMILES	IC50 (CWR22R; [7])	IC50 (PC-3)	IC50 at 3 days [1]	other results
Cc1nn(C)c(Cl)c1-c1nnnn1OCc1ccc(Cl)cc1	–	–	–	IC50 (CWR22R; cwr22r): Not Active
Clc1cccc(COn2nnnc2-c2cccnc2)c1	3.55 µM	> 10 µM	–	–
Clc1ccc(COn2nnnc2-c2cccc(Cl)c2)cc1	2.03 µM	> 100 µM	36.3 µM	–
Clc1ccc(-c2nnnn2OCc2cccc(Br)c2)cc1	0.066 µM	> 100 µM	> 100 µM	–
Fc1ccc(-c2nnnn2OCc2ccnc(Cl)c2)cc1	0.5 µM	> 100 µM	15 µM	–
CNC(=O)c1ccc(N2C(=S)N(c3ccc(C#N)c(C(F)(F)F)c3)C(=O)C2(C)C)cc1F [ENZALUTAMIDE]	36 µM	42 µM	–	–
COc1ccc(COn2nnnc2-c2ccc(OC)cc2)cc1	9.1 µM	> 10 µM	–	–
Clc1ccc(-c2nnnn2OCc2ccc(Br)cc2)cc1	0.023 µM	52.1 µM	13.8 µM	–
Clc1ccc(CCOn2nnnc2-c2ccc(Cl)cc2)cc1	> 10 µM	–	–	–
Cc1nn(C)c(Cl)c1-c1nnnn1OCc1cccc(Cl)c1	–	–	–	IC50 (CWR22R; cwr22r): Not Active
COc1ccc(-c2nnnn2OCc2cccc(Cl)c2)cc1	0.023 µM	> 100 µM	6.8 µM	–
COc1ccc(COn2nnnc2-c2ccc(Cl)cc2)cc1	> 10 µM	> 10 µM	–	–
Clc1cccc(COn2nnnc2-c2cccc(Cl)c2)c1	0.036 µM	> 100 µM	10.6 µM	–
Fc1cccc(COn2nnnc2-c2ccc(Cl)cc2)c1	0.012 µM	> 100 µM	2.6 µM	–
Clc1ccc(-c2nnnn2OCc2ccc(Cl)nc2)cc1	0.391 µM	> 100 µM	3 µM	–
Fc1ccc(-c2nnnn2OCc2ccc(Cl)c(Cl)c2)cc1	0.066 µM	> 100 µM	23.4 µM	–
Fc1ccc(On2nnnc2-c2ccc(F)cc2)cc1	> 10 µM	> 10 µM	–	–
CC(C)(On1nnnc1-c1ccc(Cl)cc1)c1ccc(Cl)cc1	> 10 µM	–	–	–
Clc1ccc(COn2nnnc2-c2ccc(Cl)cc2Cl)cc1	3.79 µM	> 100 µM	> 100 µM	–
Clc1ccc(-c2nnnn2OCC2CCCCC2)cc1	> 10 µM	> 10 µM	–	–
O=C(Nn1nnnc1-c1ccccc1)c1ccc(Cl)cc1	> 10 µM	–	–	–
CC(On1nnnc1-c1ccc(Cl)cc1)c1ccc(Cl)cc1 (stereo not drawn)	1.71 µM	> 10 µM	–	–
Clc1ccc(On2nnnc2-c2ccc(Cl)cc2)cc1	> 10 µM	> 10 µM	–	–
Clc1ccc(-c2nnnn2OCc2cccc(Cl)c2)cc1	0.073 µM	6.79 µM	> 60 µM	solubility kinetic at 0.5 h [2]: < 1.6 µg/mL; solubility kinetic at 0.5 h [3]: < 1.6 µg/mL; t1/2 [4]: 2.45 h; logD [5]: 4.5; CLH [6]: 147 µL/min/mg

SMILES	IC50 (CWR22R; [7])	IC50 (PC-3)	IC50 at 3 days [1]	other results
CC(C)(c1ccc(Cl)cc1)n1nnnc1-c1ccc(Cl)cc1	> 10 µM	–	–	–
Fc1ccc(COn2nnnc2-c2ccc(Cl)cc2)cc1	0.031 µM	25.7 µM	5.4 µM	–
FC(F)(On1nnnc1-c1ccc(Cl)cc1)c1ccccc1	> 10 µM	> 10 µM	–	inhibition (INH) (Papain): Not Active
Clc1ccc(CCn2nnnc2-c2ccc(Cl)cc2)cc1	> 10 µM	–	–	–
Fc1ccc(-c2nnnn2OCc2cccc(Cl)c2)cc1	0.076 µM	> 100 µM	> 60 µM	–
Fc1ccc(-c2nnnn2OC(F)(F)c2ccc(Cl)cc2)cc1	> 10 µM	> 10 µM	–	–
Clc1ccc(-c2nnnn2OCc2ccc(Cl)s2)cc1	0.131 µM	> 100 µM	> 60 µM	–
COc1ccc(-c2nnnn2OC(F)(F)c2ccccc2)cc1	5.41 µM	> 10 µM	–	–
Fc1ccc(CO/N=C\c2ccc(Cl)cc2)cc1	> 10 µM	> 10 µM	–	–
Fc1ccc(-c2nnnn2OCCc2ccc(Cl)cc2)cc1	> 10 µM	–	–	–
Clc1cccc(COn2nnnc2-c2ccc(Cl)cc2Cl)c1	0.4 µM	> 100 µM	> 100 µM	–
Clc1ccc(COn2nnnc2-c2cccnc2)cc1	–	–	–	IC50 (CWR22R; cwr22r): Not Active
Fc1ccc(On2nnnc2-c2ccc(Cl)cc2)cc1	> 10 µM	> 10 µM	–	–
Clc1ccc(/C=N\OCc2ccc(Cl)cc2)cc1	> 10 µM	> 10 µM	–	–
Clc1ccc(-c2nnnn2OCc2ccnc(Cl)c2)cc1	0.022 µM	14.2 µM	7 µM	–
Fc1ccc(-c2nnnn2OCc2ccc(Cl)s2)cc1	3.75 µM	> 100 µM	> 100 µM	–
FC(F)(F)c1cccc(COn2nnnc2-c2ccc(Cl)cc2)c1	0.261 µM	16.8 µM	4.9 µM	–
Fc1ccc(-c2nnnn2OCc2ccc(Cl)cc2)cc1	0.74 µM	47.4 µM	> 100 µM	inhibition (INH) (Papain): Not Active
Clc1ccc(-c2nnnn2OCC2CC2)cc1	> 10 µM	> 10 µM	–	–
Clc1ccc(-c2nnnn2OCc2ccc(Cl)c(Cl)c2)cc1	0.1 µM	> 60 µM	> 60 µM	–
COc1ccc(-c2nnnn2OCc2ccc(Cl)cc2)cc1	0.025 µM	30.2 µM	22.9 µM	–
FC(F)(F)c1cccc(COn2nnnc2-c2cccc(C(F)(F)F)c2)c1	> 10 µM	> 10 µM	–	–
Clc1ccc(-c2nnnn2OCc2ccccc2)cc1	0.04 µM	0.566 µM	–	–
